Source: US4166861A, “Pharmacologically active polyphenolic substances” (Inverni della Beffa S.p.A., priority 1976, dated 1979)
Read-outs that look alike come from different tables or passages of the source.

Legend:
[1] = Choleretic activity in the rat, intraperitoneal administration (bile volume and dry residue); assay type: in vivo, Sprague Dawley rats; conditions: for Bile Volume 3 Hours after Treatment / Dry Residue 3 Hours after Treatment / increase of the dry residue of the bile in comparison with the basal values / increase of the volume of the bile in comparison with the basal values: 100 mg/kg i.p.; for Bile Volume 3 Hours after Treatment / Dry Residue 3 Hours after Treatment: awake rat; for increase of the dry residue of the bile in comparison with the basal values / increase of the volume of the bile in comparison with the basal values: measured from 1 hour to 4 hours after administration; for choleretic action (in words): Table 2, 100 mg/kg i.p., bile volume and dry residue three hours after treatment
Description: (§1) The choleretic activity was determined in accordance with the technique described by R. Lambert in "Surgery of the Digestive System in the Rat" 1965. Sprague Dawley rats of mean weight of 230 g. were used. The products were injected intraperitoneally at the dosage of 100 mg/kg., the volume of the bile and the corresponding dry residue being measured then from 1 hour to 4 hours after administration. […] These increases are significant.
2. Choleretic Activity--Intra-Peritoneal Administration
The choleretic activities of catechin and catechin pentacetyl ferulate were determined in the manner described in paragraph A above.

Toxicity (LD50) = assay type: in vivo; conditions: for LD50: in vivo
[2] = Choleretic activity in the rat, oral administration (bile volume and dry residue); assay type: in vivo, Sprague Dawley rats; conditions: 200 mg/kg per os; for Bile Volume 2 Hours after Treatment / Dry Residue 2 Hours after Treatment / Bile Volume 3 Hours after Treatment / Dry Residue 3 Hours after Treatment: awake rat
Description: as §1
1. Choleretic Activity--Oral Administration
The choleretic activities of catechin and epicatechin were determined in the manner described in paragraph A above except that the substances under test were administered per os at the rate of 200 mg./kg.

[3] = Olive oil-induced hyperlipaemia in the rat (plasma triglycerides); assay type: in vivo, Sprague Dawley rats; conditions: for Triglycerides: 100 mg/kg per os, controls (water) 171.5±18.6; for hypolipaemic effect (in words): Table 3, 100 mg/kg per os; for diminution of the concentration of triglycerides in the plasma in comparison with the controls: 100 mg/kg orally, two treatments, 2 h before and 2 h after olive oil, significant
Description: The hyperlipaemic activity was determined in Sprague Dawley rats of mean weight of 160 g., in which hyperlipaemia was induced by means of administration of 20 ml./kg. of olive oil orally in animals which had been fasting for 16 hours. Two treatments were effected with the products under examination (upon groups of 18 animals), the first two hours before the olive oil, the second two hours afterwards. The doses were administered orally and were equal to 100 mg./kg.
3. Hypolipaemic Effect--Effect on Olive Oil-Induced Hyperlipaemia
The hypolipaemic activity of catechin and epicatechin was determined in the manner described in paragraph B1 above.

[4] = Triton hyperlipaemia in the rat (plasma cholesterol and triglycerides); assay type: in vivo, Sprague Dawley rats; conditions: 100 mg/kg i.p. (50 mg/kg immediately after Triton, 50 mg/kg after 4 hours); significant
Description: The products under examination were injected intraperitoneally at the dosage of 100 mg./kg. of which 50 mg./kg. immediately after the Triton and 50 mg./kg. after 4 hours. After a further 4 hours the animals were slaughtered and the cholesterol and triglycerides in the plasma were measured.

[5] = Lipidic metabolism in the normally fed rat (plasma free fatty acids); assay type: in vivo, Sprague Dawley rats; conditions: single dose 100 mg/kg i.p., after two hours; normolipaemic rats; significant
Description: The tests were conducted on Sprague Dawley rats of mean weight of 200 g. which were normolipaemic and to which the products had been administered intraperitoneally in a single dose of 100 mg./kg. After two hours the animals were slaughtered and the free fatty acids in the plasma were measured.

[6] = epicatechin compared with catechin

Compound	Bile Volume 3 Hours after Treatment [1]	Dry Residue 3 Hours after Treatment [1]	increase of the dry residue of the bile in comparison with the basal values [1]	increase of the volume of the bile in comparison with the basal values [1]	choleretic action (in words) [1]	Bile Volume 2 Hours after Treatment [2]	Dry Residue 2 Hours after Treatment [2]	Bile Volume 3 Hours after Treatment [2]	Dry Residue 3 Hours after Treatment [2]	Triglycerides [3]	hypolipaemic effect (in words) [3]	diminution of the concentration of triglycerides in the plasma in comparison with the controls [3]	diminution of the concentration of cholesterol in the plasma in comparison with the controls [4]	diminution of the concentration of triglycerides in the plasma in comparison with the controls [4]	diminution of the concentration of free fatty acids in the plasma in comparison with the controls [5]	also measured
COc1cc(C=CC(=O)Oc2cc(OC(=O)C=Cc3ccc(OC(C)=O)c(OC)c3)c3c(c2)O[C@H](c2ccc(OC(=O)C=Cc4ccc(OC(C)=O)c(OC)c4)c(OC(=O)C=Cc4ccc(OC(C)=O)c(OC)c4)c2)[C@@H](OC(=O)C=Cc2ccc(OC(C)=O)c(OC)c2)C3)ccc1OC(C)=O [Catechin pentacetylferulate, catechin peracetylferulate]	0.88 ± 0.05 mL	15.6 ± 0.60 mg	36%	64%	marked choleretic action	–	–	–	–	–	–	–	–	–	–	LD50 i.p. (Toxicity (LD50); i.p.): > 1000 mg/kg
Oc1cc(O)c2c(c1)O[C@H](c1ccc(O)c(O)c1)[C@@H](O)C2 [Catechin, catechin, reference compound]	0.62 ± 0.08 mL	10.0 ± 4.20 mg	–	–	no statistically significant choleretic effect	0.84 ± 0.02 mL	18.2 ± 0.37 mg	0.81 ± 0.03 mL	16.6 ± 0.81 mg	120.7±17.6 mg/100 ml	no statistically significant hypolipaemic effect	–	–	–	–	LD50 (Toxicity (LD50); ip, read-out: LD50 i.p.): > 1000 mg/kg; LD50 (Toxicity (LD50); po, per os, read-out: LD50 per os): > 2000 mg/kg
Oc1cc(O)c2c(c1)O[C@H](c1ccc(O)c(O)c1)[C@H](O)C2 [Epicatechin, epicatechin]	–	–	35%	38%	–	1.02 ± 0.07 mL	18.1 ± 2.0 mg	0.89 ± 0.09 mL	16.5 ± 2.13 mg	98.6±12.0 mg/100 ml	marked hypolipaemic effect	42%	–	–	–	choleretic activity (in words) [2, 6]: markedly higher choleretic activity than catechin; duration of choleretic effect (in words) [2, 6]: the choleretic effect is of longer duration
CC(=O)Oc1cc(OC(C)=O)c2c(c1)O[C@H](c1ccc(OC(C)=O)c(OC(C)=O)c1)[C@@H](OC(C)=O)C2 [Example 4, Catechin pentaacetate]	–	–	–	–	–	–	–	–	–	–	–	–	16.3%	23.1%	–	–
CC1(C)Oc2ccc([C@H]3Oc4cc(O)cc(O)c4C[C@@H]3O)cc2O1 [catechin acetonide]	–	–	–	–	–	–	–	–	–	–	–	–	–	–	25.8%	–
O=C(Oc1cc(OC(=O)c2cccnc2)c2c(c1)O[C@H](c1ccc(OC(=O)c3cccnc3)c(OC(=O)c3cccnc3)c1)[C@@H](OC(=O)c1cccnc1)C2)c1cccnc1 [pernicotinylcatechin]	–	–	–	–	–	–	–	–	–	–	–	27%	21.1%	28.7%	13.1%	–
